From patent US20170239323A1, “ORITAVANCIN FORMULATIONS” (The Medicines Company, priority 2016, published 2017) come the findings set out here.

The nature of this series: Double-blind pharmacokinetic study of a single 1200 mg IV dose of oritavancin in healthy volunteers. Format: in vivo. The note with it: human, plasma, healthy subjects, average. As to the method:
A randomized, double-blind, single center cohort study of a new formulation of a single 1200 mg IV dose of oritavancin in healthy volunteers, adjusting infusion time, concentration and reconstitution/administration solutions, of a single 1200 mg intravenous (IV) infusion of oritavancin in healthy adult subjects, was performed. Cohort 1 was administered the current, approved formulation of oritavancin which uses Sterile Water For Injection (SWFI) as the reconstituting agent and D5W for further dilution for a volume of 1000 mL. This infusion was given per the approved label over three hours. Cohort 2 was administered a new formulation for which hydroxypropyl-β-cyclodextrin (HPBCD) was included in the reconstitution diluent and D5W is used for further dilution for a total volume of 250 mL. This formulation was administered over two hours. Cohorts 3, 4, and 5 were administered the same new formulation as Cohort 2 (HPBCD and 250 mL of D5W); however, the infusion was administered over 90, 60, 30 minutes respectively. Two subjects in each of Cohorts 2, 3, 4, and 5 received a placebo infusion of D5W to use as a comparison when reviewing adverse event data. Healthy volunteer subjects providing informed consent and meeting all study eligibility criteria were randomized in the study and received one 1200 mg dose of IV oritavancin or placebo (cohorts 2-5 only).
COHORT 1: At the time of use, each vial was reconstituted by adding 40 mL of Sterile Water or for Injection, (“SWFI,” United States Pharmacopeia) to each 400 mg vial of oritavancin. Vials reconstituted in this manner gave a 10 mg/mL solution. After reconstitution, the compositions were combined and further diluted in 5% dextrose in water (D5W) to provide a total volume of approximately 1000 mL. At each dosing, 1200 mg of oritavancin in 1000 mL total of diluent was administered at a constant rate IV infusion over 3 hours via a single dedicated peripheral IV line (n=6).
(§1) COHORT 2: At the time of use, each vial was reconstituted by adding 4 mL of SWFI and 4 mL of 20% (w/v) HPBCD solution, to each 400 mg vial of oritavancin. Vials reconstituted in this manner provided a 50 mg/mL oritavancin solution. After reconstitution, the compositions were combined and further diluted in 5% dextrose in water (D5W) to provide a total volume of approximately 250 mL. At each dosing, 1200 mg of oritavancin in 250 mL of diluent was administered as a constant rate IV infusion over 2 hours via a single dedicated peripheral IV line (n=8) or a 2 hour placebo IV infusion of 250 mL of D5W (n=2).
as §1, with “3:” for “2:”, “90 minutes” for “2 hours”, “90 minute” for “2 hour”, “placebo” for “placebo IV”
as §1, with “4:” for “2:”, “60 minutes” for “2 hours”, “60 minute” for “2 hour”, “placebo” for “placebo IV”
COHORT 5: At the time of use, each vial was reconstituted by adding 4 mL of SWFI and 4 mL of 20% (w/v) HPBCD solution, to each 400 mg vial of oritavancin. […]

[1] abbreviates: Cohort 1: 1200 mg IV, approved formulation (SWFI, no HPBCD), D5W 1000 mL, 3 h infusion.
[2] abbreviates: Cohort 2: 1200 mg IV, HPBCD formulation, D5W 250 mL, 2 h infusion.
[3] abbreviates: Cohort 3: 1200 mg IV, HPBCD formulation, D5W 250 mL, 1.5 h infusion.
The mark [4] stands for this setting: Cohort 4: 1200 mg IV, HPBCD formulation, D5W 250 mL, 1 h infusion.
Where [5] appears, read: Cohort 5: 1200 mg IV, HPBCD formulation, D5W 250 mL, 0.5 h infusion.
Where [6] appears, read: Cohort 6: 1200 mg IV, HPBCD formulation, NS 250 mL, 1 h infusion.

Consider `CN[C@H](CC(C)C)C(=O)N[C@H]1C(=O)N[C@@H](CC(N)=O)C(=O)N[C@H]2C(=O)N[C@H]3C(=O)N[C@H](C(=O)N[C@H](C(=O)O)c4cc(O)cc(O)c4-c4cc3ccc4O)[C@H](O[C@H]3C[C@](C)(N)[C@@H](O)[C@H](C)O3)c3ccc(c(Cl)c3)Oc3cc2cc(c3O[C@@H]2O[C@H](CO)[C@@H](O)[C@H](O)[C@H]2O[C@H]2C[C@](C)(NCc3ccc(-c4ccc(Cl)cc4)cc3)[C@@H](O)[C@H](C)O2)Oc2ccc(cc2Cl)[C@H]1O` [Oritavancin], for which the AUC(0-inf) reads like this: under setting [1], 3680 µg·h/mL; under setting [2], 2710 µg·h/mL; under setting [3], 2850 µg·h/mL; under setting [4], 2870 µg·h/mL; under setting [5], 3180 µg·h/mL; under setting [6], 2960 µg·h/mL. Besides, the Cmax reads like this: under setting [1], 183 µg/mL; under setting [2], 153 µg/mL; under setting [3], 177 µg/mL; under setting [4], 202 µg/mL; under setting [5], 199 µg/mL; under setting [6], 206 µg/mL.

As usually defined, the AUC(0-inf) is the area under the concentration-time curve extrapolated to infinity. Read a low AUC(0-inf) as low exposure. As usually defined, the Cmax is the highest concentration seen after dosing.
